For one series, the system named is burn victims. The conditions noted are these: compared with molar equivalents of ornithine base and alpha-ketoglutaric acid taken separately; cited from earlier work.
A short description of series [1]: metabolic properties and overall effectiveness as a supplement, compared with other creatine forms. It counts as in vivo.
The test system of the next series is ATP production. In words: production of ATP (high energy phosphate molecules). The conditions noted are these: compared with additive effects of creatine and malic acid taken separately.
A short description of series [2]: absorption / bioavailability after oral supplementation. It is filed as in vivo.
The nature of series [3]: problems associated with creatine supplementation (cramping, bloating). It is filed as in vivo. Particulars: compared with other creatine supplementation.
Where [4] appears, read: compared with any other form of creatine or malic acid supplement currently available.
The mark [5] stands for this setting: compared to creatine monohydrate.

For the compound `NCCC[C@H](N)C(=O)O` [ornithine alpha-ketoglutarate], the anti-catabolic effect entry with burn victims is recorded as “strong anti-catabolic effect on burn victims far greater in effect than what is produced by merely combining the effects of the molar equivalents”.
As for `CN(CC(=O)O)C(=N)N.O=C(O)CC(O)C(=O)O` [monocreatine malate, reference compound], the “effect compared with dicreatine malate” value in series [1] (comparison with dicreatine malate, inventors' experience) is listed as “inferior to the dicreatine malate”.
For the compound dicreatine malate, the “production of ATP” value in the series on ATP production is “increases the production of ATP to a much greater extent than what would be expected by the mere additive effects”. The absorption entry in series [2] (setting [4]) was “more readily absorbed”. Further, the “bioavailabilities of the creatine and malic acid moieties” value in series [2] (compared with individual bioavailabilities of creatine monohydrate and malic acid) is “increase the bioavailablities of both the creatine and malic acid moieties”. Further, in series [1] (setting [5]), the decreasing adipose stores entry is on record as “enhanced efficacy for decreasing adipose stores”; the increasing cell volumization entry is listed as “enhanced efficacy for increasing cell volumization”; the increasing muscle mass result was “enhanced efficacy for increasing muscle mass”; the “increasing overall strength and endurance” value is “enhanced efficacy for increasing for increasing overall strength and endurance”. Also, the effectiveness result in series [1] (setting [4]) is “much more effective”. Moreover, the “problems associated with creatine supplementation (cramping, bloating, bioavailability issues)” value in series [3] is “decreasing some of the problems associated with other creatine supplementation”.

(Values after patent US7129273B2, “Dicreatine Malate” (Creative Compounds, LLC, priority 2003, dated 2006).)
